According to patent US9504729B2, “Antiangiogenic small molecules and methods of use” (The United States of America, as represented by the …, priority 2009, dated 2016):

Test system: angiogenesis genes in dermal microvascular endothelial cells
Assay: Real time RT-PCR of angiogenesis gene expression during endothelial tube formation
Type: cell-based
Settings: 1 μM SM, 24 hours

CC1CCN(CC[S-])CC1.O.O.[Cl][Pt+] [compound 292596]
Log2 fold-change of gene expression: 1839: −0.3
Log2 fold-change of gene expression: 4247: −0.3
Log2 fold-change of gene expression: 5569: 0.1
Log2 fold-change of gene expression: 8131: 0.3
Log2 fold-change of gene expression: 9569: −2.0
Log2 fold-change of gene expression: 10988: 0.9
Log2 fold-change of gene expression: 23001: 0.1
Log2 fold-change of gene expression: 55332: −8.6
Log2 fold-change of gene expression: 57722: −0.2
Log2 fold-change of gene expression: 58488: 0.2
Log2 fold-change of gene expression: 90780: −0.8
Log2 fold-change of gene expression: 134265: −1.6
Log2 fold-change of gene expression: AKT1: −0.8
Log2 fold-change of gene expression: ANGPT1: 2.2
Log2 fold-change of gene expression: ANGPT2: 0.8
Log2 fold-change of gene expression: ANGPTL3: 1.0
Log2 fold-change of gene expression: ANGPTL4: −3.2
Log2 fold-change of gene expression: ANPEP: 0.8
Log2 fold-change of gene expression: ANTXR1: −2.1
Log2 fold-change of gene expression: APOE: 5.1
Log2 fold-change of gene expression: ARHGEF1: −1.6
Log2 fold-change of gene expression: Acvrl1: −1.6
Log2 fold-change of gene expression: Adcy4: 4.3
Log2 fold-change of gene expression: BAL1: 1.7
Log2 fold-change of gene expression: BMP1: −0.4
Log2 fold-change of gene expression: C1orf54: −2.2
Log2 fold-change of gene expression: CALD1: 1.6
Log2 fold-change of gene expression: CCL2: 2.4
Log2 fold-change of gene expression: CCL11: 2.1
Log2 fold-change of gene expression: CD248: 0.2
Log2 fold-change of gene expression: CDH5: −0.2
Log2 fold-change of gene expression: CENTD3: 0.1
Log2 fold-change of gene expression: CLIC1: 0.6
Log2 fold-change of gene expression: COL4A3: 1.9
Log2 fold-change of gene expression: COL18A1: 2.3
Log2 fold-change of gene expression: COMT: −0.7
Log2 fold-change of gene expression: CST4: 0.3
Log2 fold-change of gene expression: CTTNBP2NL: −3.4
Log2 fold-change of gene expression: CXCL3: −3.8
Log2 fold-change of gene expression: CXCL5: 5.6
Log2 fold-change of gene expression: CXCL6: 2.2
Log2 fold-change of gene expression: CXCL9: 1.5
Log2 fold-change of gene expression: CXCL10: 2.5
Log2 fold-change of gene expression: Calcr1: −4.3
Log2 fold-change of gene expression: Caskin2: −2.3
Log2 fold-change of gene expression: Ccbp2: 0.0
Log2 fold-change of gene expression: Cldn5: −0.6
Log2 fold-change of gene expression: DGKG: 1.8
Log2 fold-change of gene expression: DKK3: −0.4
Log2 fold-change of gene expression: DLL4: −6.6
Log2 fold-change of gene expression: DUT: −1.2
Log2 fold-change of gene expression: EFNA1: 3.1
Log2 fold-change of gene expression: EFNA3: 0.5
Log2 fold-change of gene expression: EFNB2: −3.4
Log2 fold-change of gene expression: EGF: 2.2
Log2 fold-change of gene expression: ENG: −0.3
Log2 fold-change of gene expression: EPHB4: 0.9
Log2 fold-change of gene expression: EREG: 9.6
Log2 fold-change of gene expression: ESAM1: −2.0
Log2 fold-change of gene expression: EXTL3: −0.5
Log2 fold-change of gene expression: Egf17: −3.3
Log2 fold-change of gene expression: Ehd4: −1.0
Log2 fold-change of gene expression: Entpd1: −8.3
Log2 fold-change of gene expression: Epas1: 0.3
Log2 fold-change of gene expression: EphB1: 0.4
Log2 fold-change of gene expression: Erg: −6.4
Log2 fold-change of gene expression: FGF1: 4.8
Log2 fold-change of gene expression: FGF2: 2.5
Log2 fold-change of gene expression: FGFR3: 2.2
Log2 fold-change of gene expression: FIGF: 1.7
Log2 fold-change of gene expression: FLT1: −1.9
Log2 fold-change of gene expression: Fgd5: −1.0
Log2 fold-change of gene expression: GPCR124: −6.7
Log2 fold-change of gene expression: GRRP1: 0.2
Log2 fold-change of gene expression: Grp116: −3.1
Log2 fold-change of gene expression: HAND2: 1.7
Log2 fold-change of gene expression: HGF: 2.2
Log2 fold-change of gene expression: HIF1A: −2.1
Log2 fold-change of gene expression: HPSE: −0.3
Log2 fold-change of gene expression: Hspa12b: −3.3
Log2 fold-change of gene expression: ID1: 4.0
Log2 fold-change of gene expression: ID3: 1.0
Log2 fold-change of gene expression: IFNA1: 2.2
Log2 fold-change of gene expression: IFNB1: 2.6
Log2 fold-change of gene expression: IFNG: 6.5
Log2 fold-change of gene expression: IGF1: 0.6
Log2 fold-change of gene expression: IL1B: −4.1
Log2 fold-change of gene expression: IL6: 3.7
Log2 fold-change of gene expression: IL8: 5.1
Log2 fold-change of gene expression: ITGAV: −0.9
Log2 fold-change of gene expression: ITGB3: −1.8
Log2 fold-change of gene expression: Icam1: 0.5
Log2 fold-change of gene expression: Icam2: −0.4
Log2 fold-change of gene expression: JAG1: 0.5
Log2 fold-change of gene expression: KDR: −1.8
Log2 fold-change of gene expression: Kifc1: 1.6
Log2 fold-change of gene expression: LAMAS5: −0.3
Log2 fold-change of gene expression: LECT1: 1.4
Log2 fold-change of gene expression: LEP: 2.6
Log2 fold-change of gene expression: Lasts2: 0.4
Log2 fold-change of gene expression: Lrrk1: −1.5
Log2 fold-change of gene expression: MDK: −1.5
Log2 fold-change of gene expression: MMP2: 1.1
Log2 fold-change of gene expression: MMP9: 1.8
Log2 fold-change of gene expression: MMP11: −0.3
Log2 fold-change of gene expression: MRC2: −0.5
Log2 fold-change of gene expression: Mmm2: −2.4
Log2 fold-change of gene expression: Myo1b: −2.0
Log2 fold-change of gene expression: NID1: −3.6
Log2 fold-change of gene expression: NM023516: 0.2
Log2 fold-change of gene expression: NRP1: −2.3
Log2 fold-change of gene expression: NRP2: −3.2
Log2 fold-change of gene expression: Notch4: −0.6
Log2 fold-change of gene expression: Npr3: 0.7
Log2 fold-change of gene expression: PALD: −1.9
Log2 fold-change of gene expression: PDCD2: −1.1
Log2 fold-change of gene expression: PDGFA: 4.0
Log2 fold-change of gene expression: PECAM1: −1.8
Log2 fold-change of gene expression: PGF: −1.7
Log2 fold-change of gene expression: PLAU: −0.2
Log2 fold-change of gene expression: PLG: −0.4
Log2 fold-change of gene expression: PNMT: −0.7
Log2 fold-change of gene expression: PROK2: 2.0
Log2 fold-change of gene expression: PTGS1: 1.1
Log2 fold-change of gene expression: PTPRCAP: −0.5
Log2 fold-change of gene expression: Pltp: 0.5
Log2 fold-change of gene expression: Ptprb: −1.9
Log2 fold-change of gene expression: Ptprm: −0.8
Log2 fold-change of gene expression: RAMP2: −5.0
Log2 fold-change of gene expression: RASD2: −0.5
Log2 fold-change of gene expression: Rasip1: −0.5
Log2 fold-change of gene expression: S1PR1: 0.2
Log2 fold-change of gene expression: SERPINF1: 0.7
Log2 fold-change of gene expression: SPHK1: 1.8
Log2 fold-change of gene expression: STAB1: −0.5
Log2 fold-change of gene expression: Sdc4: 1.4
Log2 fold-change of gene expression: Sdpr: 0.8
Log2 fold-change of gene expression: Slc43a3: 0.6
Log2 fold-change of gene expression: Slco2a1: −1.0
Log2 fold-change of gene expression: TEK: 1.3
Log2 fold-change of gene expression: TGFA: 8.9
Log2 fold-change of gene expression: TGFB1: −0.8
Log2 fold-change of gene expression: TGFB2: 2.1
Log2 fold-change of gene expression: TGFBR1: 1.4
Log2 fold-change of gene expression: THBS1: −0.1
Log2 fold-change of gene expression: THBS2: 1.1
Log2 fold-change of gene expression: THY1: −5.8
Log2 fold-change of gene expression: TIMP1: 1.4
Log2 fold-change of gene expression: TIMP2: 0.4
Log2 fold-change of gene expression: TIMP3: −1.2
Log2 fold-change of gene expression: TNF: 6.1
Log2 fold-change of gene expression: TNS1: −0.5
Log2 fold-change of gene expression: TNS3: 1.3
Log2 fold-change of gene expression: TRA2B: 0.9
Log2 fold-change of gene expression: TYMP: −5.5
Log2 fold-change of gene expression: VEGFA: 0.4
Log2 fold-change of gene expression: VEGFC: 1.6
Log2 fold-change of gene expression: VGLL4: −2.8
Log2 fold-change of gene expression: Vwf: −2.6
Log2 fold-change of gene expression: copa: −0.5
Log2 fold-change of gene expression: itbp4: −1.5
Log2 fold-change of gene expression: ralb: −0.5
Log2 fold-change of gene expression: stard9: −0.9
Log2 fold-change of gene expression: B2M (1st listing (r49)): −2.0
Log2 fold-change of gene expression: HPRT1 (1st listing (r50)): −0.5
Log2 fold-change of gene expression: RPL13A (1st listing (r51)): 1.9
Log2 fold-change of gene expression: GADPH (1st listing (r52)): 0.3
Log2 fold-change of gene expression: ACTB (1st listing (r53)): 0.0
Log2 fold-change of gene expression: PLXDC1 (1st listing (r74)): 0.3
Log2 fold-change of gene expression: TNFAIP2 (1st listing (r91)): −0.2
Log2 fold-change of gene expression: Robo4 (1st listing (r95)): −1.2
Log2 fold-change of gene expression: 151516 (1st listing (r134)): 0.3
Log2 fold-change of gene expression: TNFAIP2 (2nd listing (r92)): −0.1
Log2 fold-change of gene expression: B2M (2nd listing (r97)): −1.6
Log2 fold-change of gene expression: HPRT1 (2nd listing (r98)): 0.1
Log2 fold-change of gene expression: RPL13A (2nd listing (r99)): 1.5
Log2 fold-change of gene expression: GADPH (2nd listing (r100)): 0.8
Log2 fold-change of gene expression: ACTB (2nd listing (r101)): −0.4
Log2 fold-change of gene expression: PLXDC1 (2nd listing (r104)): 0.2
Log2 fold-change of gene expression: 151516 (2nd listing (r139)): 0.3
Log2 fold-change of gene expression: Robo4 (2nd listing (r188)): 0.2
Log2 fold-change of gene expression: B2M (3rd listing (r145)): −0.4
Log2 fold-change of gene expression: HPRT1 (3rd listing (r146)): 0.4
Log2 fold-change of gene expression: RPL13A (3rd listing (r147)): 1.1
Log2 fold-change of gene expression: GADPH (3rd listing (r148)): −0.3
Log2 fold-change of gene expression: ACTB (3rd listing (r149)): −0.9
Log2 fold-change of gene expression: B2M (4th listing (r193)): −0.8
Log2 fold-change of gene expression: HPRT1 (4th listing (r194)): 0.1
Log2 fold-change of gene expression: RPL13A (4th listing (r195)): 0.6
Log2 fold-change of gene expression: GADPH (4th listing (r196)): 0.4
Log2 fold-change of gene expression: ACTB (4th listing (r197)): −0.1
